A word on the IC50: it is the concentration at which inhibition is half-maximal.

Bounds are passed on as bounds.

The test system of one test is Ramos RA1 B cells. Kind of test: Ramos FLIPR Assay (intracellular calcium after anti-human IgM stimulation). As to conditions: Ramos RA1 B cells stimulated with goat anti-human IgM 2.5 μg/mL; peak calcium; read-out: IC50 for Inhibition of Ramos FLIPR assay. The format is cell-based. The method, then: Ramos RA1 B cells (ATCC CRL-1596) at a density of 2×10^6 cells/ml in RPMI minus phenol red (Invitrogen 11835-030) and 50 mM HEPES (Invitrogen 15630-130) containing 0.1% BSA (Sigma A8577) were added to one half volume of calcium loading buffer (BD bulk kit for probenecid sensitive assays, #640177) and incubated at room temperature in the dark for 1 hour. Dye-loaded cells were pelleted (Beckmann GS-CKR, 1200 rpm, RT, 5 minutes) and resuspended in RT RPMI minus phenol red with 50 mM HEPES and 10% FBS to a density of 1×10^6 cells/ml. 150 μl aliquots (150,000/well) were plated into 96 well poly-D-lysine coated assay plates (BD 35 4640) and briefly centrifuged (Beckmann GS-CKR 800 rpm, 5 minutes, without brake). 50 μl compound dilutions in 0.4% DMSO/RPMI minus phenol red+50 mM HEPES+10% FBS were added to the wells and the plate was incubated at RT in the dark for 1 hour. Assay plate was briefly centrifuged as above prior to measuring calcium levels.
Using the FLIPR1 (Molecular devices), cells were stimulated by adding goat anti-human IgM (Invitrogen AHI0601) to 2.5 μg/mL. Changes in intracellular calcium concentrations were measured for 180 seconds and percent inhibition was determined relative to peak calcium levels seen in the presence of stimulation only.
For orientation: Calcium flux is commonly read through the fluorescence of an indicator in the cells.

For a further test, the target named is T1, human recombinant Btk (Homo sapiens, UniProt Q06187).
T1 construct: purchased Invitrogen Corporation
T1 sequence (Q06187 whole entry): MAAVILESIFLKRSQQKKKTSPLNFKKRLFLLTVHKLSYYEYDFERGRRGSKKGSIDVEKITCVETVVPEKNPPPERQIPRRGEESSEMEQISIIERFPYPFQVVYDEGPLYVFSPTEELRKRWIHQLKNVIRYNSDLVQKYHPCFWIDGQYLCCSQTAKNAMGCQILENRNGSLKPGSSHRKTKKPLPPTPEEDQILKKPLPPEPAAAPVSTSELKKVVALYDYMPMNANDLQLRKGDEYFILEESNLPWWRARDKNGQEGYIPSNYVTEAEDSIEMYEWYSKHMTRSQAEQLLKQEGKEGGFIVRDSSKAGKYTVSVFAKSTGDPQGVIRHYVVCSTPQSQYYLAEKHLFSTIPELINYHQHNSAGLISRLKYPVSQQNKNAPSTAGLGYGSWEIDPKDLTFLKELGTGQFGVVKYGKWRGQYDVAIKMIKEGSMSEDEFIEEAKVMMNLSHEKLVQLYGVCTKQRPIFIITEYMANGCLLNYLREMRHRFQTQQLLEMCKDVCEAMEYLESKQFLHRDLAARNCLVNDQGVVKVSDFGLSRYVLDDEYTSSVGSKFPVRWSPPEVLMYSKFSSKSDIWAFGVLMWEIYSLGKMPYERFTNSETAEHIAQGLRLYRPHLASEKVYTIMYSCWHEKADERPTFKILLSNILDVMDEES
Kind of test: Human Recombinant Btk Enzyme Assay. The format is biochemical. The following applies: human recombinant Btk 1 nM, ATP 20 μM, 60 min room temperature; read-out: IC50 for Inhibition of Btk. The method, then: Human Recombinant Btk Enzyme Assay
To V-bottom 384-well plates were added test compounds, human recombinant Btk (1 nM, Invitrogen Corporation), fluoresceinated peptide (1.5 μM), ATP (20 μM), and assay buffer (20 mM HEPES pH 7.4, 10 mM MgCl2, 0.015% Brij35 and 4 mM DTT in 1.6% DMSO), with a final volume of 30 μL. After incubating at room temperature for 60 min, the reaction was terminated by adding 45 μl of 35 mM EDTA to each sample. The reaction mixture was analyzed on the Caliper LABCHIP® 3000 (Caliper, Hopkinton, Mass.) by electrophoretic separation of the fluorescent substrate and phosphorylated product. Inhibition data were calculated by comparison to no enzyme control reactions for 100% inhibition and no inhibitor controls for 0% inhibition. Dose response curves were generated to determine the concentration required inhibiting 50% of kinase activity (IC50). Compounds were dissolved at 10 mM in dimethylsulfoxide (DMSO) and evaluated at eleven concentrations.
Using this assay, the IC50 values of the following compounds were determined.

For the molecule `COCCOc1ccc2c(c1)[nH]c1c(C(N)=O)ncc(-c3cccc(N4Cc5ccc(OC)cc5C4=O)c3F)c12` [Example 82], in the test on Ramos RA1 B cells, the IC50 was 1080 nM.

Regarding `Cc1c(-c2nnc(C(N)=O)c3[nH]c4cc(OCCO)ccc4c23)cccc1-n1cnc2ccccc2c1=O` [Example 34, 7-(2-Hydroxyethoxy)-1-(2-methyl-3-(4-oxoquinazolin-3(4H)-yl)phenyl)-5H-pyridazino[4,5-b]indole-4-carboxamide], the IC50 on human recombinant Btk was 7 nM. With `Cc1c(-c2ncc(C(N)=O)c3[nH]c4cc(C(C)(C)O)ccc4c23)cccc1N1Cc2ccc(F)cc2C1=O` [Example 41, 1-(3-(6-Fluoro-1-oxoisoindolin-2-yl)-2-methylphentl)-7-(2-hydroxypropan-2-yl)-5H-pyrido[4,3-b]indole-4-carboxamide], the IC50 with Ramos RA1 B cells is > 500 nM; on human recombinant Btk, 6 nM. For the molecule `COc1ccc2[nH]c3c(C(N)=O)ncc(-c4ccccc4F)c3c2c1` [Example 56], on human recombinant Btk, the IC50 is 32 nM.

`NC(=O)c1ncc(-c2cccc(NC(=O)N3Cc4ccc(F)cc4C3)c2F)c2c1[nH]c1cc(N3CCOCC3)ccc12` [Example 73]: the IC50 in the test with Ramos RA1 B cells worked out at 1030 nM.

For the molecule `COc1ccc2c(c1)C(=O)N(c1cccc(-c3nnc(C(N)=O)c4[nH]c5cc(C(C)=O)ccc5c34)c1C)C2` [Example 35, 7-Acetyl-1-(3-(6-methoxy-1-oxoisoindolin-2-yl)-2-methylphenyl)-5H-pyridazino[4,5-b]indole-4-carboxamide], the IC50 in the test with Ramos RA1 B cells was found to be 1380 nM; at human recombinant Btk, 57 nM. As for `Cc1c(-c2cnc(C(N)=O)c3[nH]c4cc5c(cc4c23)OCO5)cccc1N1Cc2ccc(Cl)cc2C1=O` [Example 79], in the test with Ramos RA1 B cells, the IC50 came out at 856 nM. Still for that read-out and setting: next, `Cc1c(-c2nnc(C(N)=O)c3[nH]c4cc(C(C)(C)O)ccc4c23)cccc1N1Cc2ccc(Cl)cc2C1=O` [Example 100]: 19 nM. Take `COCCOc1ccc2c(c1)[nH]c1c(C(N)=O)ncc(-c3cccc(N4Cc5ccc(Cl)cc5C4=O)c3C)c12` [Example 9, 4-(3-(6-Chloro-1-oxoisoindolin-2-yl)-2-methylphenyl)-7-(2-methoxyethoxy)-9H-pyrido[3,4-b]indole-1-carboxamide]: the IC50 at human recombinant Btk was found to be 2 nM. For the molecule `COc1ccc2c(c1)C(=O)N(c1cccc(-c3nnc(C(N)=O)c4[nH]c5cc(C(C)(C)O)ccc5c34)c1C)C2` [Example 36, 7-(2-Hydroxypropan-2-yl)-1-(3-(6-methoxy-1-oxoisoindolin-2-yl)-2-methylphenyl)-5H-pyridazino[4,5-b]indole-4-carboxamide], the IC50 on human recombinant Btk amounted to 3 nM.

On to `Cc1c(-c2cnc(C(N)=O)c3[nH]c4cc(N5CCOCC5)ccc4c23)cccc1-n1cnc2c(F)cccc2c1=O` [Example 97], for which the IC50 in the test on Ramos RA1 B cells was determined as 15 nM. `COCCOc1ccc2c(c1)[nH]c1c(C(N)=O)nc(C)c(-c3cccc(-n4cnc5ccccc5c4=O)c3C)c12` [Example 37, 7-(2-Methoxyethoxy)-3-methyl-4-(2-methyl-3-(4-oxoquinazolin-3(4H)-yl)phenyl)-9H-pyrido[3,4-b]indole-1-carboxamide]: the IC50 with Ramos RA1 B cells was 190 nM; on human recombinant Btk, 14 nM. As to `Cc1c(-c2ccc(C(N)=O)c3[nH]c4cnc(C(C)(C)O)cc4c23)cccc1-n1cnc2cccc(F)c2c1=O` [Example 110], the figures for the IC50 in the test with Ramos RA1 B cells and on human recombinant Btk were 96 nM and 14 nM, respectively. With `Cc1c(-c2nnc(C(N)=O)c3[nH]c4cc(OCCO)ccc4c23)cccc1N1Cc2ccc(Cl)cc2C1=O` [Example 99], the IC50 at human recombinant Btk was determined as 8 nM. With `Cc1c(-c2cnc(C(N)=O)c3[nH]c4cc(OCCO)ccc4c23)cccc1-n1cnc2ccc(F)cc2c1=O` [Example 90], the IC50 in the test on Ramos RA1 B cells came to 84 nM. Regarding `CN(C)c1ccc(C(=O)Nc2cccc(-c3cnc(C(N)=O)c4[nH]c5cc(C(=O)N6CCOCC6)ccc5c34)c2F)cc1` [Example 55], the IC50 on human recombinant Btk was 43 nM. Consider `COCCOc1ccc2c(c1)[nH]c1c(C(N)=O)ncc(-c3cccc(-n4cnc5c(F)cccc5c4=O)c3C)c12` [Example 87], for which the figures for the IC50 in the test with Ramos RA1 B cells and on human recombinant Btk were 63 nM and 7 nM, respectively. The matching figures for `Cc1c(-c2cnc(C(N)=O)c3[nH]c4cc(C(C)O)ccc4c23)cccc1-n1cnc2ccccc2c1=O` (stereo not drawn) [Example 30, 7-(1-Hydroxyethyl)-4-(2-methyl-3-(4-oxoquinazolin-3(4H)-yl)phenyl)-9H-pyrido[3,4-b]indole-1-carboxamide]: 16 nM and 3 nM. Turning to `Cc1c(-c2ccc(C(N)=O)c3[nH]c4cc(C(=O)N(C)C)ncc4c23)cccc1-n1cnc2ccccc2c1=O` [Example 117], the IC50 in the test on Ramos RA1 B cells turned out to be 294 nM; on human recombinant Btk, 23 nM. For `COCCOc1ccc2c(c1)[nH]c1c(C(N)=O)ncc(-c3cccc(N4Cc5ccc(F)cc5C4=O)c3F)c12` [Example 85], in the test on Ramos RA1 B cells, the 50% inhibitory concentration (IC50) is 1420 nM. Turning to `Cc1c(-c2cnc(C(N)=O)c3[nH]c4cc(N5CCOCC5)ccc4c23)cccc1N1Cc2ccc(Cl)cc2C1=O` [Example 92], the IC50 in the test on Ramos RA1 B cells turned out to be 56 nM. `Cc1c(-c2ccc(C(N)=O)c3[nH]c4c(c23)CNCC4)cccc1-n1cnc2ccccc2c1=O` [Example 42, 9-(2-Methyl-3-(4-oxoquinazolin-3(4H)-yl)phenyl)-2,3,4,5-tetrahydro-1H-pyrido[4,3-b]indole-6-carboxamide]: the IC50 is > 1000 nM with Ramos RA1 B cells and 521 nM at human recombinant Btk. With `NC(=O)c1ncc(-c2cccc(N3Cc4ccc(Cl)cc4C3=O)c2F)c2c1[nH]c1cc(N3CCOCC3)ccc12` [Example 77], the IC50 in the test on Ramos RA1 B cells was found to be 81 nM.

With `Cc1c(NC(=O)c2ccc(F)cc2)cccc1-c1cnc(C(N)=O)c2[nH]c3cc(N4CCOCC4)ccc3c12` [Example 64], the half-maximal inhibitory concentration (IC50) at human recombinant Btk is 8 nM. On to `Cc1c(NC(=O)N2Cc3ccc(F)cc3C2)cccc1-c1cnc(C(N)=O)c2[nH]c3cc(N4CCOCC4)ccc3c12` [Example 71], for which the values for the IC50 with Ramos RA1 B cells and on human recombinant Btk were 71 nM and 3 nM, respectively. On to `COc1ccc2c(c1)C(=O)N(c1cccc(-c3cnc(C(N)=O)c4[nH]c5cc(C(C)O)ccc5c34)c1C)C2` (stereo not drawn) [Example 31, 7-(1-Hydroxyethyl)-4-(3-(6-methoxy-1-oxoisoindolin-2-yl)-2-methylphenyl)-9H-pyrido[3,4-b]indole-1-carboxamide], for which the IC50 in the test with Ramos RA1 B cells stood at 71 nM. Take `COCCOc1ccc2c(c1)[nH]c1c(C(N)=O)nnc(-c3cccc(N4Cc5ccc(Cl)cc5C4=O)c3C)c12` [Example 32, 1-(3-(6-Chloro-1-oxoisoindolin-2-yl)-2-methylphenyl)-7-(2-methoxyethoxy)-5H-pyridazino[4,5-b]indole-4-carboxamide]: on human recombinant Btk, the IC50 came out at 7 nM. Turning to `Cc1c(-c2cnc(C(N)=O)c3[nH]c4cc(OCCO)ccc4c23)cccc1-n1cnc2ccccc2c1=O` [Example 11, 7-(2-Hydroxyethoxy)-4-(2-methyl-3-(4-oxoquinazolin-3(4H)-yl)phenyl)-9H-pyrido[3,4-b]indole-1-carboxamide], the IC50 on human recombinant Btk came out at 3 nM. Still for that read-out and setting: next, `Cc1ccc(C(=O)Nc2cccc(-c3cnc(C(N)=O)c4[nH]c5cc(N6CCOCC6)ccc5c34)c2F)nc1` [Example 60]: 85 nM; `NC(=O)c1ncc(-c2ccccc2F)c2c1[nH]c1ccc(F)cc12` [Example 54]: 65 nM.
